In patent US20200390889A1, “REMOTELY TRIGGERED THERAPY” (Bambu Vault LLC, priority 2019, published 2020):

Experiments:
[1] = likelihood of association with drug induced liver injury, based upon the known potential of the drug; cited from earlier work
[2] = Percentage of curcumin and Epolight IR 1117 loading / encapsulation determination; type: physicochemical; conditions: in B-805 PMMA/BMA particles made by Example 13(b)
Protocol: The UV-VIS-NIR absorbance spectrum of the IR absorbing agent and/or the drug is measured using Shimadzu UV-3600 UV-VIS-NIR Spectrophotometer. The concentration of the IR absorbing agent in the particles is determined from application of Beer's law.

[3] = Leaching (stability) test, protective effect of VTMS shell; type: physicochemical; conditions: post-coating vs pre-coating B-805 particles; 1% SDS in water, sonicated 90 minutes
Protocol: Prior to the test, particles were dispersed in water for storage at varying concentrations. Amounts of fluid containing 50 mg of particles—a sample of pre-coating particles and a sample of post-coating particles—were weighed into 15 mL conical centrifuge tubes. The tubes were centrifuged to sediment the particles and supernatant was removed. 3 mL of 1% SDS in water was added to each tube, which were then vortexed to resuspend particles. The tubes containing the particles suspended in SDS solution were placed into a sonicated water bath for 90 minutes. The tubes were then removed and centrifuged to sediment the particles again. The supernatant was retained and filtered through a 0.2 μm syringe filter to remove any remaining particles. Absorption spectra of the supernatants was then measured on a Shimadzu 3600 UV/Vis/NIR spectrophotometer from 400-1300 nm. Molarity of colored components in the solutions and the percentage decrease of absorption between post-coating and pre-coating particles was calculated from the spectra.

[4] = Laser triggered drug release from particles in gelatin; type: physicochemical; conditions: PMMA beads with 25% VTMS shells in gelatin; Q-switched Lutronic laser 1064 nm, 2.46-5.09 J/cm^2
Protocol: Procedure: A solution of gelatin was prepared by adding Knox gelatin (1.0 g) to cold water (12.5 g) in a 100 mL glass jar equipped with a magnetic stir bar. The gelatin was stirred 15-30 minutes and then hot water was added (70° C.) until the total weight was 50.0 g. This gelatin was then used in 2.0 gm aliquots. Drug loaded PMMA beads with 25% VTMS shells as prepared in Example 1b above (20-30 mg) were then added to the gelatin solution (2.0 g) and vortexed mixed in a 4 dram vial. The suspension of the tattoo particles in gelatin was then sonicated for 15-30 minutes before transferring to a 5 cm plastic culture dish. The gelatin suspension was spread evenly and allowed to set. It was then covered and placed in a refrigerator a 6° C. until ready for laser exposure.
Laser exposure was accomplished as follows: The cover for the culture dish was removed and a 5 cm clear plastic cover was cut and fit over the gelatin to prevent splatter. The top surface was then completely lasered at 1064 nm with a 5 mm spot using fluences ranging from 2.46 J/cm^2 to 5.09 J/cm^2 using Q-switched Lutronic laser.
After lasering the top surface the culture dish was covered with its lid, turned over and lasered from the opposite side to reach any unexposed beads visible only from the bottom side.
The standard fluence for tattoo removal is 3.51 J/cm^2. […]

[5] = test system: T47D; conditions: ER+ breast cancer cells, Hu et al. 2018; cited from earlier work
[6] = test system: MCF7; conditions: MCF7, ER+ breast cancer cells; Hu et al. 2018; cited from earlier work
[7] = test system: MDA-MB-415; conditions: MDA-MB-415, ER+ breast cancer cells; Hu et al. 2018; cited from earlier work
[8] = test system: MDA-MB-231; conditions: MDA-MB-231, ER-PR-HER2- cells; Hu et al. 2018; cited from earlier work
[9] = test system: MDA-MD-468; conditions: MDA-MD-468, ER-PR-HER2- cells; Hu et al. 2018; cited from earlier work
[10] = test system: BT-20; conditions: BT-20, ER-PR-HER2- cells; Hu et al. 2018; cited from earlier work
[11] = Screening of acrylic polymers and additives for IR absorbing agent stability and retention; type: physicochemical; conditions: additive within the particles
Protocol: Various commercially available acrylic polymers were screened for preferred particle performance characteristic such as particle size distribution, IR absorbing agent stability and encapsulation efficiency. […] NeoCryl® B-818, an ethyl acrylate/ethyl methacrylate copolymer, contained a lower hydroxyl value, but was still swellable in low molecular weight alcohols. NeoCryl® B-805, a methyl methacrylate/butyl methacrylate copolymer, had suitably a low hydroxyl value and a high Tg (99° C.) for human body applications.
The loading of IR absorbing agents within the particles is as high as possible without degrading the cohesion of the polymer. The additives that stabilize the IR absorbing agent within the particles have been studied.

[12] = Retention of tetrakis aminium dye during emulsification with different surfactants; type: physicochemical; conditions: for retention of Epolight 1117 in the particles: during the emulsion and evaporation process
Protocol: IR absorbing agent weight ratio=4.4:1). The organic phase (polymer and IR absorbing agents dissolved in dichloromethane) was injected directly into the aqueous phase (PVA solution with SDS surfactant) at the tip of the Turrax's roto-stator (i.e. directly into the flow being sheared by the roto-stator). The shear mixing at 8000 RPM was continued for 30 minutes. The resulting mixture was decanted into an open-mouth container and stirred magnetically for 16 hours. A solid suspension of particles containing IR absorbing agent was obtained. The solid suspension was centrifuged at 5000 RPM for 30 minutes and the particles were collected. The collected particles were washed with distilled water by resuspending the particles into distilled water and centrifuging as before to collect the particles. This washing process was repeated three times to remove residual PVA. The resulting MMA/IA/BMA copolymer particles containing IR absorbing agent were air-dried. In the emulsion method of encapsulation, a surfactant is necessary to help keep the emulsion stable. While Aerosol® TR-70 (sodium bis(tridecyl) sulfosuccinate) could be used as an emulsifier to prepare polymer particles encapsulating Epolight™ 1117 tetrakis aminium dye, TR-70 only provided limited stabilization effects on the tetrakis aminium dye. […] Reducing the amount of SDS in the aqueous phase led to lower Epolight™ 1117 retention and larger particle size (Table 5).

[13] = 0.6% surfactant in aqueous phase during emulsification

SMILES	Likelihood Score [1]	further results
CCN1CCN(Cc2ccc(Nc3ncc(F)c(-c4cc(F)c5nc(C)n(C(C)C)c5c4)n3)nc2)CC1 [Abemaciclib]	E*	
CCS(=O)(=O)N1CC(CC#N)(n2cc(-c3ncnc4[nH]ccc34)cn2)C1 [Baricitinib]	E*	
Cn1cnc2c(F)c(Nc3ccc(Br)cc3F)c(C(=O)NOCCO)cc21 [Binimetinib]	E*	
COc1cc(Nc2c(C#N)cnc3cc(OCCCN4CCN(C)CC4)c(OC)cc23)c(Cl)cc1Cl [Bosutinib]	E*	
COc1cc(N2CCC(N3CCN(C)CC3)CC2)ccc1Nc1ncc(Cl)c(Nc2ccccc2P(C)(C)=O)n1 [Brigatinib]	E*	
COc1cc2nccc(Oc3ccc(NC(=O)C4(C(=O)Nc5ccc(F)cc5)CC4)cc3)c2cc1OC [Cabozantinib]	E*	
COc1c(OCCCN2CCOCC2)ccc2c1N=C(NC(=O)c1cnc(N)nc1)N1CCN=C21 [Copanlisib]	E*	
COc1cc(/C=C/C(=O)CC(=O)/C=C/c2ccc(O)c(OC)c2)ccc1O [Curcumin, curcumin]		measured encapsulation [2]: 78%; reduction of leaching by VTMS shell [3]: 70%; curcumin released from the particles [4]: about 3 wt. %; IC50 [5]: 2.07 ± 0.08 µM; IC50 [6]: 1.32 ± 0.06 µM; IC50 [7]: 4.69 ± 0.06 µM; IC50 [8]: 11.3 ± 2.13 µM; IC50 [9]: 18.6 ± 3.12 µM; IC50 [10]: 16.2 ± 2.16 µM
Cc1cc(C(C)(C)C)c(O)c(C)c1Cn1c(=O)n(Cc2c(C)cc(C(C)(C)C)c(O)c2C)c(=O)n(Cc2c(C)cc(C(C)(C)C)c(O)c2C)c1=O [Cyanox® 1790, 1,3,5-tris(4-tert-butyl-3-hydroxy-2,6-dimethylbenzyl)-1,3,5-triazine-2,4,6-(1H,3H,5H)-trione]		impact on IR absorbing agent stability [11]: positive impact
CC(C)(C)c1nc(-c2cccc(NS(=O)(=O)c3c(F)cccc3F)c2F)c(-c2ccnc(N)n2)s1 [Dabrafenib]	E*	
COc1cc2ncnc(Nc3ccc(F)c(Cl)c3)c2cc1NC(=O)/C=C/CN1CCCCC1 [Dacomitinib]	E*	
C[C@H](Nc1ncnc2[nH]cnc12)c1cc2cccc(Cl)c2c(=O)n1-c1ccccc1 [Duvelisib]	E*	
CC(C)(O)CNc1nc(Nc2ccnc(C(F)(F)F)c2)nc(-c2cccc(C(F)(F)F)n2)n1 [Enasidenib]	E*	
COC(=O)N[C@@H](C)CNc1nccc(-c2cn(C(C)C)nc2-c2cc(Cl)cc(NS(C)(=O)=O)c2F)n1 [Encorafenib]	E*	
COc1cc(Nc2ncc(F)c(Nc3ccc4c(n3)N(COP(=O)(O)O)C(=O)C(C)(C)O4)n2)cc(OC)c1OC [Fostamatinib]	E*	
CCc1nc(C(N)=O)c(Nc2ccc(N3CCC(N4CCN(C)CC4)CC3)c(OC)c2)nc1NC1CCOCC1 [Gilteritinib]	E*	
CN1CC[C@@H](NC(=O)Nc2ccc(C#N)cc2)C[C@@H]1c1nc2ccccc2[nH]1 [Glasdegib]	E*	
N#Cc1ccnc(N2C(=O)CC[C@H]2C(=O)N(c2cncc(F)c2)[C@H](C(=O)NC2CC(F)(F)C2)c2ccccc2Cl)c1 [Ivosidenib]	E*	

SMILES	Likelihood Score [1]	further results
CC(C)C[C@H](NC(=O)CNC(=O)c1cc(Cl)ccc1Cl)B(O)O [Ixazomib]	E*	
O=C(Nc1cnn2ccc(N3CCC[C@@H]3c3cc(F)ccc3F)nc12)N1CC[C@H](O)C1 [Larotrectinib]	E*	
C[C@H]1Oc2cc(cnc2N)-c2c(nn(C)c2C#N)CN(C)C(=O)c2ccc(F)cc21 [Lorlatinib]	E*	
CO[C@@H]1[C@H](N(C)C(=O)c2ccccc2)C[C@H]2O[C@]1(C)n1c3ccccc3c3c4c(c5c6ccccc6n2c5c31)C(=O)NC4 [Midostaurin]	E*	
CCOc1cc2ncc(C#N)c(Nc3ccc(OCc4ccccn4)c(Cl)c3)c2cc1NC(=O)/C=C/CN(C)C [Neratinib]	E*	
COC(=O)c1ccc2c(c1)NC(=O)/C2=C(\Nc1ccc(N(C)C(=O)CN2CCN(C)CC2)cc1)c1ccccc1 [Nintedanib]	E*	
NC(=O)c1cccc2cn(-c3ccc([C@@H]4CCCNC4)cc3)nc12 [Niraparib]	E*	
CC(=O)c1c(C)c2cnc(Nc3ccc(N4CCNCC4)cn3)nc2n(C2CCCC2)c1=O [Palbociclib]	E*	
Cc1ccc(C(=O)Nc2ccc(CN3CCN(C)CC3)c(C(F)(F)F)c2)cc1C#Cc1cnc2cccnn12 [Ponatinib]	E*	
CNCc1ccc(-c2[nH]c3cc(F)cc4c3c2CCNC4=O)cc1 [Rucaparib]	D*	
N#CC[C@H](C1CCCC1)n1cc(-c2ncnc3[nH]ccc23)cn1 [Ruxolitinib]	E*	
CCCCCCCCCCCCOS(=O)(=O)[O-].[Na+] [SDS, sodium dodecyl sulfate]		% Epolight 1117 Retention ([12]; 0.2% surfactant in aqueous phase during emulsification): 74.97%; % Epolight 1117 Retention ([12]; 0.4% surfactant in aqueous phase during emulsification): 80.17%; % Epolight 1117 Retention [12, 13]: 82.96%; retention of Epolight 1117 in the particles [12]: 85-90%
Cc1c(C(=O)Nc2ccc(N3C[C@@H](C)O[C@@H](C)C3)nc2)cccc1-c1ccc(OC(F)(F)F)cc1 [Sonidegib]	E*	
CCCCCCCCCCCCCOC(=O)CC(C(=O)OCCCCCCCCCCCCC)S(=O)(=O)O.[Na] (centres unmarked) [TR-70, sodium bis(tridecyl) sulfosuccinate]		% Epolight 1117 Retention [12, 13]: 51.70%; retention of Epolight 1117 in the particles [12]: 50%
Cn1ncnc1[C@H]1c2n[nH]c(=O)c3cc(F)cc(c23)N[C@@H]1c1ccc(F)cc1 [Talazoparib]	E*	
COc1cc2c(Nc3ccc(Br)cc3F)ncnc2cc1OCC1CCN(C)CC1 [Vandetanib]	E*	
CCCS(=O)(=O)Nc1ccc(F)c(C(=O)c2c[nH]c3ncc(-c4ccc(Cl)cc4)cc23)c1F [Vemurafenib]	E*	
